Reference: publication PMC2248166, “Quantitative peptide binding motifs for 19 human and mouse MHC class I molecules derived using positional scanning combinatorial peptide libraries” (Immunome Research, 2008)
Where a SMILES comes first, the peptide text is derived from it.

Columns and labels:
Test in all cases: biochemical
Type in all cases: binding
HLA A*3201 = HLA A*3201 (Homo sapiens, UniProt P04439, A270S/D101S/D185E/E176V/E277Q/F133L/G103R/G107R/G231S/H175R/I121M/I218V/I322F/K168Q/L105A/L300P/L318F/M331R/P208A/P217A/Q94H/R106L/R138Q/S129P/T104I/T323A/T345S/V100E/V321M/V358M)
HLA B*1501 = HLA B*1501 (Homo sapiens, UniProt P01889, A329T/A93T/A95T/C349S/D201E/D98Y/E187L/E204Q/E69M/E70A/K202T/N87E/Q94N/R155S/R180W/S121R/S35A/S48A/V306I/V36M/Y140S/Y91S)
HLA B*1503 = HLA B*1503 (Homo sapiens, UniProt P01889, A329T/A93T/A95T/C349S/D201E/D98Y/E187L/E204Q/K202T/N87E/Q94N/R155S/R180L/S121R/S35A/V306I/V36M/Y140S/Y91S)
HLA A*3001 = HLA A*3001 (Homo sapiens, UniProt P04439, D140H/D185E/E176W/F33S/G80R/H175R/K168Q/R138E/R41S)
Chain of HLA A*3001 (P04439 25-365 limits assumed, stated change not applied): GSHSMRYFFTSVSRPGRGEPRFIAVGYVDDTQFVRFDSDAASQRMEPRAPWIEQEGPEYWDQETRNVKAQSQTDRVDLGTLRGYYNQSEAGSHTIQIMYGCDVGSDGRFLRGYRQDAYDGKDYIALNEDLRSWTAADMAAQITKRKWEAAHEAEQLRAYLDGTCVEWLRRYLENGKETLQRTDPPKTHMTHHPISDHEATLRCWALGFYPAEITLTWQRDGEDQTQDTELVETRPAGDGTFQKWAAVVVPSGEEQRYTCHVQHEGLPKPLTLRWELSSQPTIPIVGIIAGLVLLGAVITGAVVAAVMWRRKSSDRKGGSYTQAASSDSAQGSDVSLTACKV

SMILES | IC50 (HLA A*3201) | IC50 (HLA B*1501) | IC50 (HLA B*1503) | IC50 (HLA A*3001)
CC[C@H](C)[C@H](NC(=O)[C@H](CO)NC(=O)[C@@H](N)CCSC)C(=O)N[C@@H](CCSC)C(=O)N1CCC[C@H]1C(=O)N[C@H](C(=O)N[C@@H](CC(C)C)C(=O)N[C@@H](C)C(=O)N[C@@H](Cc1ccc(O)cc1)C(=O)O)C(C)C [3102.0858] (H-MSIMPVLAY-OH) | 100 nM | 1.4 nM |  | 
CC(C)C[C@H](NC(=O)[C@@H](N)CCCCN)C(=O)N[C@@H](CC(N)=O)C(=O)N[C@@H](CC(N)=O)C(=O)N[C@H](C(=O)N[C@@H](Cc1ccccc1)C(=O)N[C@@H](Cc1ccc(O)cc1)C(=O)N[C@H](C(=O)N[C@@H](Cc1ccccc1)C(=O)O)C(C)C)C(C)C [3102.1169] (H-KLNNVFYVF-OH) | 0.52 nM | 1.2 nM |  | 
CC[C@H](C)[C@H](N)C(=O)N[C@H](C(=O)N[C@@H](C)C(=O)N[C@@H](Cc1c[nH]cn1)C(=O)N[C@@H](CC(C)C)C(=O)N[C@H](C(=O)N[C@@H](CC(N)=O)C(=O)N[C@@H](CO)C(=O)N[C@@H](CC(C)C)C(=O)O)C(C)C)[C@@H](C)O [3102.0503] (H-ITAHLVNSL-OH) | 183 nM | 6.5 nM |  | 
CC(C)C[C@H](NC(=O)[C@H](Cc1ccccc1)NC(=O)[C@H](Cc1c[nH]c2ccccc12)NC(=O)[C@H](CC(C)C)NC(=O)[C@@H](N)CC(C)C)C(=O)N[C@H](C(=O)NCC(=O)N[C@H](C(=O)N[C@@H](Cc1ccccc1)C(=O)O)[C@@H](C)O)[C@@H](C)O [3102.1045] (H-LLWFLTGTF-OH) | 93 nM | 0.78 nM |  | 
CC(C)C[C@H](N)C(=O)N[C@H](C(=O)N[C@@H](Cc1ccccc1)C(=O)N[C@@H](CC(=O)O)C(=O)N[C@@H](Cc1ccc(O)cc1)C(=O)N[C@H](C(=O)N[C@H](C(=O)N[C@H](C(=O)N[C@@H](Cc1ccccc1)C(=O)O)[C@@H](C)O)C(C)C)C(C)C)[C@@H](C)O [3102.0931] (H-LTFDYVVTF-OH) | 17 nM | 2.5 nM |  | 
CC[C@H](C)[C@H](NC(=O)[C@@H](N)CCSC)C(=O)N[C@@H](Cc1ccccc1)C(=O)N[C@@H](Cc1ccccc1)C(=O)N[C@@H](CC(N)=O)C(=O)N1CCC[C@H]1C(=O)N[C@H](C(=O)N[C@@H](CO)C(=O)N[C@@H](Cc1ccccc1)C(=O)O)C(C)C [3102.0841] (H-MIFFNPVSF-OH) | 0.46 nM | 9.4 nM |  | 
CC[C@H](C)[C@H](NC(=O)[C@H](CC(C)C)NC(=O)[C@@H](N)CCCNC(=N)N)C(=O)N[C@H](C(=O)N[C@@H](CC(C)C)C(=O)N[C@@H](Cc1ccccc1)C(=O)N[C@@H](CCC(=O)O)C(=O)N[C@H](C(=O)N[C@@H](Cc1ccccc1)C(=O)O)C(C)C)C(C)C [3102.0817] (H-RLIVLFEVF-OH) | 13 nM | 6.8 nM |  | 
CC[C@H](C)[C@H](N)C(=O)N[C@H](C(=O)N[C@H](C(=O)N1CCC[C@H]1C(=O)N[C@@H](CC(C)C)C(=O)N[C@@H](CO)C(=O)N[C@H](C(=O)N[C@@H](CO)C(=O)N[C@H](C(=O)O)[C@@H](C)CC)C(C)C)[C@@H](C)CC)[C@@H](C)CC [3102.0502] (H-IIIPLSVSI-OH) | 70 nM | 299 nM |  | 
CC[C@H](C)[C@H](NC(=O)[C@@H](NC(=O)[C@@H](N)CC(C)C)[C@@H](C)CC)C(=O)N[C@H](C(=O)N[C@@H](CCCCN)C(=O)N[C@H](C(=O)N[C@@H](Cc1ccccc1)C(=O)N[C@@H](CO)C(=O)N[C@@H](Cc1ccccc1)C(=O)O)C(C)C)[C@@H](C)O [3102.1011] (H-LIITKVFSF-OH) | 84 nM | 7.7 nM |  | 
CC[C@H](C)[C@H](NC(=O)[C@@H](N)CC(N)=O)C(=O)N[C@@H](Cc1ccccc1)C(=O)N1CCC[C@H]1C(=O)N[C@@H](Cc1ccccc1)C(=O)N[C@@H](Cc1ccccc1)C(=O)N[C@H](C(=O)N[C@@H](C)C(=O)N[C@@H](Cc1ccccc1)C(=O)O)C(C)C [3102.1019] (H-NIFPFFVAF-OH) | 12 nM | 2.2 nM |  | 
CC[C@H](C)[C@H](N)C(=O)N[C@@H](CCSC)C(=O)N[C@@H](Cc1ccccc1)C(=O)N[C@@H](CO)C(=O)N[C@@H](CCCCN)C(=O)N[C@@H](CO)C(=O)N[C@@H](CC(C)C)C(=O)N[C@@H](CC(N)=O)C(=O)N[C@@H](Cc1ccccc1)C(=O)O [3102.1204] (H-IMFSKSLNF-OH) | 15 nM |  | 0.23 nM | 
CC[C@H](C)[C@H](N)C(=O)N[C@H](C(=O)N[C@@H](Cc1ccccc1)C(=O)N[C@@H](CCSC)C(=O)N[C@@H](CC(N)=O)C(=O)N[C@@H](CC(C)C)C(=O)N[C@@H](Cc1ccc(O)cc1)C(=O)N[C@@H](CO)C(=O)N[C@@H](Cc1ccccc1)C(=O)O)[C@@H](C)CC [3102.1328] (H-IIFMNLYSF-OH) | 1.3 nM |  | 11 nM | 
CC(C)[C@H](NC(=O)[C@H](Cc1ccccc1)NC(=O)[C@@H](NC(=O)[C@H](Cc1c[nH]cn1)NC(=O)[C@H](CCC(=O)O)NC(=O)[C@H](CCCNC(=N)N)NC(=O)[C@@H](NC(=O)[C@@H](N)CCCCN)C(C)C)[C@@H](C)O)C(=O)N[C@@H](CCCCN)C(=O)O [3102.0071] (H-KVREHTFVK-OH) | 149 nM |  |  | 2.1 nM
CC(C)C[C@H](NC(=O)[C@@H](N)CC(C)C)C(=O)N[C@@H](Cc1ccc(O)cc1)C(=O)N[C@H](C(=O)N[C@@H](C)C(=O)N[C@@H](CC(N)=O)C(=O)N[C@@H](Cc1ccccc1)C(=O)N[C@H](C(=O)N[C@@H](Cc1ccccc1)C(=O)O)[C@@H](C)O)[C@@H](C)O [3102.0873] (H-LLYTANFTF-OH) | 6.7 nM | 2.4 nM |  | 
CC[C@H](C)[C@H](NC(=O)[C@@H](NC(=O)[C@@H](N)CCCCN)[C@@H](C)O)C(=O)N[C@@H](C)C(=O)N[C@@H](CCCNC(=N)N)C(=O)N[C@@H](Cc1ccccc1)C(=O)N[C@H](C(=O)N[C@@H](Cc1ccc(O)cc1)C(=O)N[C@@H](Cc1ccccc1)C(=O)O)[C@@H](C)O [3102.1031] (H-KTIARFTYF-OH) | 95 nM | 0.2 nM |  | 
CSCC[C@H](NC(=O)[C@H](Cc1ccc(O)cc1)NC(=O)[C@H](CC(C)C)NC(=O)[C@@H](N)CC(C)C)C(=O)N[C@@H](Cc1ccccc1)C(=O)N1CCC[C@H]1C(=O)N[C@@H](CC(N)=O)C(=O)N[C@@H](CC(C)C)C(=O)N[C@@H](Cc1ccccc1)C(=O)O [3102.1335] (H-LLYMFPNLF-OH) | 90 nM |  | 0.11 nM | 
CC[C@H](C)[C@H](NC(=O)[C@H](C)NC(=O)[C@H](Cc1ccccc1)NC(=O)[C@H](CCC(N)=O)NC(=O)[C@@H](N)Cc1c[nH]c2ccccc12)C(=O)N[C@@H](Cc1c[nH]cn1)C(=O)N[C@@H](Cc1ccc(O)cc1)C(=O)N[C@@H](CO)C(=O)N[C@@H](Cc1ccccc1)C(=O)O [3102.1096] (H-WQFAIHYSF-OH) | 2.8 nM |  | 4.5 nM | 
CC[C@H](C)[C@H](N)C(=O)N[C@H](C(=O)N[C@@H](Cc1ccc(O)cc1)C(=O)N[C@@H](CO)C(=O)N[C@@H](CC(C)C)C(=O)N[C@H](C(=O)N[C@H](C(=O)N[C@H](C(=O)N[C@H](C(=O)O)[C@@H](C)CC)[C@@H](C)O)[C@@H](C)O)C(C)C)C(C)C [3102.0292] (H-IVYSLVTTI-OH) | 3.6 nM |  |  | 16 nM
CC(C)C[C@H](NC(=O)[C@@H](NC(=O)[C@H](CC(N)=O)NC(=O)[C@H](C)NC(=O)[C@H](CC(N)=O)NC(=O)[C@H](Cc1ccc(O)cc1)NC(=O)[C@H](Cc1ccccc1)NC(=O)[C@H](CCC(N)=O)NC(=O)[C@@H](N)CCCNC(=N)N)C(C)C)C(=O)O [3102.1205] (H-RQFYNANVL-OH) | 37 nM |  | 0.24 nM | 
